Assay results from ChEMBL document CHEMBL5537166, “PROTACs Targeting BRM (SMARCA2) Afford Selective In Vivo Degradation over BRG1 (SMARCA4) and Are Active in BRG1 Mutant Xenograft Tumor Models” (J Med Chem, 2024).
Calls of active or inactive are those of the source. No cut-off for these calls is given here.

Assays:
[1] = tested on: NCI-H1944; test: Antiproliferative activity against BRM-dependent human NCI-H1944 cells assessed as growth inhibition incubated for 7 days by celltiter glo 2.0 assay; format: functional; conditions: NCI-H1944, 168 h, time 7 day
[2] = tested on: Calu-6; test: Antiproliferative activity against human Calu-6 cells assessed as growth inhibition incubated for 7 days by celltiter glo 2.0 assay; format: functional; conditions: Calu-6, 168 h, time 7 day
[3] = Plasma protein binding in mouse incubated for 15 mins by LC-MS/MS analysis; format: ADME, cell-free; conditions: read-out: PPB (converted)
[4] = Clearance in mouse at 1 mg/kg, iv measured upto 60 mins by LC-MS/MS analysis; format: ADME, organism-based; conditions: in vivo, 1 h
[5] = Half life in mouse at 1 mg/kg, iv measured upto 60 mins by LC-MS/MS analysis; format: ADME, organism-based; conditions: in vivo
[6] = Drug concentration in mouse plasma measured for 24 hrs; format: ADME, cell-free
[7] = tested on: HCC2302; test: Antitumor activity against human BRM-dependent HCC2302 cells xenografted in CD-1 mouse assessed as reduction in tumor growth at 10 to 30 mg/kg, ip administered once daily for 11 days; format: functional, organism-based; conditions: dose 10-30 mg/kg, time 11.0 day
[8] = Toxicity in CD-1 mouse xenografted with BRM-dependent human HCC2302 cells assessed as body weight loss at 10 to 30 mg/kg, ip administered once daily for 11 days; format: organism-based; conditions: in vivo, 264 h, dose 10-30 mg/kg, time 11 day
[9] = Toxicity in CD-1 mouse xenografted with BRM-dependent human HCC2302 cells assessed as animal death at 10 to 30 mg/kg, ip measured at 9 to 13 days; format: organism-based; conditions: in vivo, dose lower 10 mg/kg, time lower 9 day, dose upper 30 mg/kg, time upper 13 day
[10] = Toxicity in CD-1 mouse xenografted with BRM-dependent human HCC2302 cells assessed as animal survival at 10 mg/kg, ip measured at 15 days; format: organism-based; conditions: in vivo, 360 h, time 15 day
[11] = Toxicity in CD-1 mouse xenografted with BRM-dependent human HCC2302 cells assessed as tolerability at 10 mg/kg, ip measured at 15 days; format: organism-based; conditions: in vivo, 360 h, time 15 day
[12] = tested on: SW1573; test: Induction of PALS1 degradation in human SW1573 cells at 100 nM incubated for 8 hrs by proteomics analysis; format: cell-based
[13] = tested on: SW1573; test: Induction of PATJ degradation in human SW1573 cells at 100 nM incubated for 8 hrs by proteomics analysis; format: cell-based
[14] = molecular target: MAP kinase-activated protein kinase 3 (Homo sapiens) (UniProt Q16644); test: Induction of MAPKAPK3 degradation in human SW1573 cells at 100 nM incubated for 8 hrs by proteomics analysis; format: cell-based
Sequence of MAP kinase-activated protein kinase 3 (Homo sapiens) (Q16644 whole entry, looked up): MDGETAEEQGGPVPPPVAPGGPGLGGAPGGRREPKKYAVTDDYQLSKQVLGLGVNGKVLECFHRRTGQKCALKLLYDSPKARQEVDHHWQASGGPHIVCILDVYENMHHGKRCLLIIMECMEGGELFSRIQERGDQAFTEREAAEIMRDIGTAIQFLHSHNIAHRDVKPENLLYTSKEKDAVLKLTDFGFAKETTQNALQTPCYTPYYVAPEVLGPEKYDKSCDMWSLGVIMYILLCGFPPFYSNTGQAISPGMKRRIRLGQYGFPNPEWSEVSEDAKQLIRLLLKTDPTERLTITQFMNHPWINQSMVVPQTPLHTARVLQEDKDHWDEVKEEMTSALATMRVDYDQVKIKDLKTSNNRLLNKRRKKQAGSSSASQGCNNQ

[15] = molecular target: Urokinase-type plasminogen activator (Homo sapiens) (UniProt P00749); test: Induction of PLAU degradation in human SW1573 cells at 100 nM incubated for 8 hrs by proteomics analysis; format: cell-based
[16] = molecular target: Protein polybromo-1 (Homo sapiens) (UniProt Q86U86); test: Induction of PBRM1 degradation in human SW1573 cells at 100 nM incubated for 8 hrs by proteomics analysis; format: cell-based
Sequence of Protein polybromo-1 (Homo sapiens) (Q86U86 whole entry): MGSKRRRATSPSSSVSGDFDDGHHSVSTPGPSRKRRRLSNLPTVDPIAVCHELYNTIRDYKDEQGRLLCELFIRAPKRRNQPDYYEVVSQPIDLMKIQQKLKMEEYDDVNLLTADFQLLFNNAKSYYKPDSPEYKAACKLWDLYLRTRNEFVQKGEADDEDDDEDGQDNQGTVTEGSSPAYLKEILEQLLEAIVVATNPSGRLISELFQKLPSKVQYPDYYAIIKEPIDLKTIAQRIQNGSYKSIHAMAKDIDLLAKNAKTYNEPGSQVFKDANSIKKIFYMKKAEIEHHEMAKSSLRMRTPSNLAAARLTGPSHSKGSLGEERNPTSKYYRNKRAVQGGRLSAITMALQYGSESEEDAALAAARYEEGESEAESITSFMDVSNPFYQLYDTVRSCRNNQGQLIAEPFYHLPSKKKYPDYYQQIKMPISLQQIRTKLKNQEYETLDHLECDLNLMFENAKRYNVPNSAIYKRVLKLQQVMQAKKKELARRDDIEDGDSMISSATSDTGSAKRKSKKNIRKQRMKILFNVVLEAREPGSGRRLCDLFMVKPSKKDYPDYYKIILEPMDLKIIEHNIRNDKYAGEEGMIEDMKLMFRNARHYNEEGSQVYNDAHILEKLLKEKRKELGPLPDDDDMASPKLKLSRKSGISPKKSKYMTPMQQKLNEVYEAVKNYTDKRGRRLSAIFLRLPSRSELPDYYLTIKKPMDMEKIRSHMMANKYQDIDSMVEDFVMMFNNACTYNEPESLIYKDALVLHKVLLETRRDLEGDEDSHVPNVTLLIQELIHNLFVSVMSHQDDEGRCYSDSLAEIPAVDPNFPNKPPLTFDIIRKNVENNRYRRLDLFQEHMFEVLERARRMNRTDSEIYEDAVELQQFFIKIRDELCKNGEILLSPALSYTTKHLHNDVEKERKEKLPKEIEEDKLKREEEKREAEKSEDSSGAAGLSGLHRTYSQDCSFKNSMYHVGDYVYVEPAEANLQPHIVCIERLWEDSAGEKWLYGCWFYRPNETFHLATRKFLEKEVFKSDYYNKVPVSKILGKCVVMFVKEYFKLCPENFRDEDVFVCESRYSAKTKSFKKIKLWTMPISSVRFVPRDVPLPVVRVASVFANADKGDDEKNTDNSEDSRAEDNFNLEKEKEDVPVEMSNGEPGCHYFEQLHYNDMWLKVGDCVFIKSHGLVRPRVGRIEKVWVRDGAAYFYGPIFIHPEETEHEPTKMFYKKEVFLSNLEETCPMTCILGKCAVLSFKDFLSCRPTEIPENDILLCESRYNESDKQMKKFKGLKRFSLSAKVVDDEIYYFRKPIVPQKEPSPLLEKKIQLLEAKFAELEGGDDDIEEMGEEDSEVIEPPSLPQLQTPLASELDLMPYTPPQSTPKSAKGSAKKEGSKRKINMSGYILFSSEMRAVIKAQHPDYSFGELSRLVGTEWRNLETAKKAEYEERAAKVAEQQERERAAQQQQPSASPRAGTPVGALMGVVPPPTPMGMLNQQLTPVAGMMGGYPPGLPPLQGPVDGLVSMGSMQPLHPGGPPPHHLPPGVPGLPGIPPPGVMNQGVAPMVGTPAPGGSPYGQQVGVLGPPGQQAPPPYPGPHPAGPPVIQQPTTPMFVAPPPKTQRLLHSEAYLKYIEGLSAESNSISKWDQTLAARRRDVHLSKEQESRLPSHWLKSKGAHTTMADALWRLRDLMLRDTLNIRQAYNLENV

[17] = tested on: Mus musculus; test: In-vivo PROTAC activity at BRM/VHL in CD-1 mouse xenografted with human HCC2302 cells at 20 mg/kg, iv measured for 96 hrs; format: functional
[18] = tested on: Mus musculus; test: In-vivo PROTAC activity at BRM/VHL in CD-1 mouse xenografted with Murine stromal cell line at 20 mg/kg, iv measured for 96 hrs; format: functional
[19] = Drug concentration in mouse tumor at 20 mg/kg, ip measured for 96 hrs; format: ADME, organism-based, Neoplasm; conditions: read-out: Ct
[20] = Clearance in CD-1 mouse at 10 mg/kg, iv measured for 24 hrs; format: ADME, organism-based; conditions: in vivo
[21] = Clearance in CD-1 mouse at 30 mg/kg, iv measured for 24 hrs; format: ADME, organism-based; conditions: in vivo
[22] = Volume of distribution in CD-1 mouse at 10 mg/kg, iv measured for 24 hrs; format: ADME, organism-based; conditions: in vivo
[23] = Volume of distribution in CD-1 mouse at 30 mg/kg, iv measured for 24 hrs; format: ADME, organism-based; conditions: in vivo
[24] = Half life in CD-1 mouse at 10 mg/kg, iv measured for 24 hrs; format: ADME, organism-based; conditions: in vivo
[25] = Half life in CD-1 mouse at 30 mg/kg, iv measured for 24 hrs; format: ADME, organism-based; conditions: in vivo
[26] = Initial plasma concentration in CD-1 mouse at 10 mg/kg, iv measured for 24 hrs; format: ADME, organism-based
[27] = Initial plasma concentration in CD-1 mouse at 30 mg/kg, iv measured for 24 hrs; format: ADME, organism-based
[28] = AUClast in CD-1 mouse at 10 mg/kg, iv measured for 24 hrs; format: ADME, organism-based; conditions: in vivo
[29] = AUClast in CD-1 mouse at 30 mg/kg, iv measured for 24 hrs; format: ADME, organism-based; conditions: in vivo
[30] = Toxicity in CD-1 mouse xenografted with BRM-dependent human HCC2302 cells assessed as body weight loss at 10 mg/kg, ip administered once daily for 7 days; format: organism-based; conditions: in vivo, 168 h, time 7 day
[31] = Toxicity in CD-1 mouse xenografted with BRM-dependent human HCC2302 cells assessed as animal death at 10 mg/kg, ip administered once daily for 7 days; format: organism-based; conditions: in vivo, 168 h, time 7 day
[32] = tested on: HCC2302; test: Antitumor activity against human BRM-dependent HCC2302 cells xenografted in CD-1 mouse assessed as tumor growth inhibition at 20 mg/kg, ip administered twice per week for 21 days; format: functional, organism-based; conditions: time 21.0 day
[33] = Toxicity in CD-1 mouse xenografted with BRM-dependent human HCC2302 cells assessed as body weight loss at 20 mg/kg, ip administered twice per week for 21 days; format: organism-based; conditions: in vivo, 504 h, time 21 day
[34] = tested on: HCC2302; test: Antitumor activity against human BRM-dependent HCC2302 cells xenografted in CD-1 mouse assessed as tumor growth inhibition at 10 mg/kg, iv administered twice per week for 21 days; format: functional, organism-based; conditions: time 21.0 day
[35] = tested on: HCC2302; test: Antitumor activity against human BRM-dependent HCC2302 cells xenografted in CD-1 mouse at 30 mg/kg, iv administered twice per week for 11 days; format: functional, organism-based; conditions: time 11.0 day
[36] = tested on: Mus musculus; test: In-vivo PROTAC activity at BRM/VHL in CD-1 mouse xenografted with human HCC2302 cells assessed as reduction in BRM level in tumor at 10 mg/kg, iv administered twice weekly for 7 times for 21 days and measured after 24 hrs post dose by Western blot analysis; format: functional; parameters: scale not given: the % may be the effect or the level left; conditions: time 22 day
[37] = tested on: Mus musculus; test: In-vivo PROTAC activity at BRM/VHL in CD-1 mouse xenografted with human HCC2302 cells assessed as reduction in BRM level in tumor at 20 mg/kg, iv administered twice weekly for 7 times for 21 days and measured after 24 hrs post dose by Western blot analysis; format: functional; parameters: scale not given: the % may be the effect or the level left; conditions: time 22 day
[38] = tested on: Mus musculus; test: In-vivo PROTAC activity at BRM/VHL in CD-1 mouse xenografted with human HCC2302 cells assessed as reduction in BRM level in tumor at 30 mg/kg, iv administered 7 times and measured after 96 hrs by Western blot analysis; format: functional; parameters: scale not given: the % may be the effect or the level left
[39] = tested on: Mus musculus; test: In-vivo PROTAC activity at BRG1 /VHL in CD-1 mouse xenografted with human HCC2302 cells assessed as reduction in BRG1 level in tumor at 10 mg/kg, iv administered twice weekly for 7 times for 21 days and measured after 24 hrs post dose by Western blot analysis; format: functional; parameters: scale not given: the % may be the effect or the level left; conditions: time 22 day
[40] = tested on: Mus musculus; test: In-vivo PROTAC activity at BRG1 /VHL in CD-1 mouse xenografted with human HCC2302 cells assessed as reduction in BRG1 level in tumor at 20 mg/kg, iv administered twice weekly for 7 times for 21 days and measured after 24 hrs post dose by Western blot analysis; format: functional; parameters: scale not given: the % may be the effect or the level left; conditions: time 22 day
[41] = tested on: Mus musculus; test: In-vivo PROTAC activity at BRG1 /VHL in CD-1 mouse xenografted with human HCC2302 cells assessed as reduction in BRG1 level in tumor at 30 mg/kg, iv administered 7 times and measured after 96 hrs by Western blot analysis; format: functional; parameters: scale not given: the % may be the effect or the level left
[42] = tested on: HCC2302; test: Antitumor activity against human BRM-dependent HCC2302 cells xenografted in CD-1 mouse assessed as suppression of KRT80 mRNA level at 10 mg/kg, iv administered twice weekly for 7 times for 21 days and measured after 24 hrs post dose; format: functional; conditions: time 22 day
[43] = tested on: HCC2302; test: Antitumor activity against human BRM-dependent HCC2302 cells xenografted in CD-1 mouse assessed as suppression of KRT80 mRNA level at 20 mg/kg, iv administered twice weekly for 7 times for 21 days and measured after 24 hrs post dose; format: functional; conditions: time 22 day
[44] = tested on: HCC2302; test: Antitumor activity against human BRM-dependent HCC2302 cells xenografted in CD-1 mouse assessed as suppression of KRT80 mRNA level at 30 mg/kg, iv administered 7 times and measured after 96 hrs; format: functional
[45] = tested on: HCC2302; test: Antitumor activity against human BRM-dependent HCC2302 cells xenografted in CD-1 mouse assessed as suppression of PLAU mRNA level at 10 mg/kg, iv administered twice weekly for 7 times for 21 days and measured after 24 hrs post dose; format: functional; conditions: time 22 day
[46] = tested on: HCC2302; test: Antitumor activity against human BRM-dependent HCC2302 cells xenografted in CD-1 mouse assessed as suppression of PLAU mRNA level at 20 mg/kg, iv administered twice weekly for 7 times for 21 days and measured after 24 hrs post dose; format: functional; conditions: time 22 day
[47] = tested on: HCC2302; test: Antitumor activity against human BRM-dependent HCC2302 cells xenografted in CD-1 mouse assessed as suppression of PLAU mRNA level at 30 mg/kg, iv administered 7 times and measured after 96 hrs; format: functional
[48] = tested on: HCC2302; test: Antitumor activity against human BRM-dependent HCC2302 cells xenografted in CD-1 mouse assessed as tumor growth inhibition at 10 mg/kg, iv administered twice weekly for 7 times for 21 days and measured after 24 hrs post dose; format: functional; conditions: HCC2302, 528 h, time 22 day, read-out: TGI
[49] = tested on: HCC2302; test: Antitumor activity against human BRM-dependent HCC2302 cells xenografted in CD-1 mouse assessed as tumor growth inhibition at 20 mg/kg, iv administered twice weekly for 7 times for 21 days and measured after 24 hrs post dose; format: functional; conditions: HCC2302, 528 h, time 22 day, read-out: TGI
[50] = tested on: HCC2302; test: Antitumor activity against human BRM-dependent HCC2302 cells xenografted in CD-1 mouse assessed as tumor growth inhibition at 30 mg/kg, iv administered 7 times and measured after 96 hrs; format: functional; conditions: read-out: TGI

## Cc1ncsc1-c1ccc([C@H](C)NC(=O)[C@@H]2C[C@@H](O)CN2C(=O)[C@@H](c2cc(OCCN3CCC(O[C@H]4C[C@H](Oc5cc(N6C7CCC6CN(c6cc(-c8ccccc8O)nnc6N)C7)ccn5)C4)CC3)no2)C(C)C)cc1
[1]
  GI50: 0.64 nM
[2]
  GI50: 24 nM
[3]
  fraction unbound at 0.25 h: 0.027
[4]
  clearance: 22 mL/min/kg
[5]
  half-life: 2.6 h
[6]
  concentration at 24 h: 26 nM
[7]
  Activity: Active
[8]
  Activity: Toxic
[9]
  Activity: Toxic
[10]
  Activity: Non-Toxic
[11]
  Activity: Non-Toxic
[12]
  Activity: Active
[13]
  Activity: Active
[14]
  Activity: Active
[15]
  Activity: Active
[16]
  Activity: Active
[17]
  Activity: 64%
[18]
  Activity: 4%
[19]
  concentration at 96 h: 158 ng/g

## Cc1ncsc1-c1ccc([C@H](C)NC(=O)[C@@H]2C[C@@H](O)CN2C(=O)[C@@H](c2cc(N3CCC(CN4CCC(O[C@H]5C[C@H](Oc6cc(N7C8CCC7CN(c7cc(-c9ccccc9O)nnc7N)C8)ccn6)C5)CC4)CC3)no2)C(C)C)cc1
[1]
  GI50: 0.58 nM
[2]
  GI50: 6.5 nM
[3]
  fraction unbound at 0.25 h: 0.048
[4]
  clearance: 9.6 mL/min/kg
[5]
  half-life: 16 h
[6]
  concentration at 24 h: 71 nM
[20]
  clearance: 16 mL/min/kg
[21]
  clearance: 15 mL/min/kg
[22]
  Vd: 6.3 L/kg
[23]
  Vd: 8.7 L/kg
[24]
  half-life: 6.6 h
[25]
  half-life: 8.9 h
[26]
  C0 at 24 h: 12600 ng/mL
[27]
  C0 at 24 h: 58000 ng/mL
[28]
  AUC(0-t) at 24 h: 10200 ng·h/mL
[29]
  AUC(0-t) at 24 h: 30800 ng·h/mL
[30]
  Activity: Non-Toxic
[31]
  Activity: Non-Toxic
[17]
  Activity: 82%
[18]
  Activity: 22%
[19]
  concentration at 96 h: 483 ng/g
[32]
  TGI: Active
[33]
  Activity: Non-Toxic
[34]
  TGI: inactive
[35]
  Activity: Active
[36]
  Activity: 81%
[37]
  Activity: 99%
[38]
  Activity: 97%
[39]
  Activity: 30%
[40]
  Activity: 47%
[41]
  Activity: 84%
[42]
  Activity: 25%
[43]
  Activity: 71%
[44]
  Activity: 72%
[45]
  Activity: 91%
[46]
  Activity: 98%
[47]
  Activity: 97%
[48]
  inhibition in vivo at 10 mg/kg: 1%
[49]
  inhibition in vivo at 20 mg/kg: 62%
[50]
  inhibition in vivo at 30 mg/kg: > 65%
